This is an account of results in patent US12331095B2, “Inducible T cell receptors and uses thereof” (MEDIGENE IMMUNOTHERAPIES GMBH, priority 2018, dated 2025).

The structures appear in SMILES notation.

The subject of the assay is CD8+ PBL. The assay is described as follows: Flow cytometry (CD3, BV6-5) for induction of iTCR-NY-ESO on the surface of CD8+ PBL. The format is cell-based. Particulars: any of the concentrations tried (data not shown). How it is done:
FIG. 9: CD8^+ PBL transduced with iTCR-NY-ESO (MHC-I restricted TCR) or CD8^+ PBL expressing wt-NY-ESO were induced overnight with 1, 5, 10 or 20 μM Endoxifen or were left uninduced (no Endoxifen). 24 h after induction T2 cells loaded with relevant peptide SLLMWITQC (SEQ ID NO: 12) or irrelevant peptide VLDGLDVLL (SEQ ID NO: 11) were added to the cultures. IFN-γ secretion was detected by standard IFN-γ ELISA performed with the culture supernatants 24 h after stimulation with T2 targets. Flow cytometry was performed 48 h after induction and cells were assessed for BFP (transductants), CD3 and BV6-5. Exemplary plots shown are iTCR-NY-ESO transduced CD8^+ PBL without induction or with 20 μM Endoxifen. Plots were generated using the analysis tool FlowJo V10. Graph was plotted using graphPad Prism 7.
PBL from a healthy donor was enriched for CD8^+ cells using a commercial cell isolation kit (CD8+untouched) and transduced with the lentiviral vector carrying the iTCR-NY-ESO cassette or with the lentiviral vector carrying wt-NY-ESO as positive control. […] CD8^+ cells carrying either iTCR-NY-ESO were induced overnight with 20 μM Endoxifen or left untreated. Cells were then stained for CD3 (CD3-PECy7, SK7, 557851, BD) and the specific V-beta family BV6-5 (antibody: TRBV6-5-PE, IMMU 222, IM2292, Beckman Coulter).
For orientation: A flow cytometer gives signals particle by particle.

For the molecule `CCC(=C(c1ccc(O)cc1)c1ccc(OCCN(C)C)cc1)c1ccccc1` [4-Hydroxytamoxifen, 4-(1-[4-(Dimethylaminoethoxy)phenyl]-2-phenyl-1-butenyl)phenol], the “induction of iTCR-NY-ESO in PBL” value is listed as “did not induce iTCR-NY-ESO in PBL in any of the concentrations tried”.
